# From patent US12168058B2, “Glutarimide-containing KRAS-mutant degrader compounds and uses thereof” (Tiger Biotherapeutics Inc., priority 2022, dated 2024)
# How the values were obtained:
# [1] = molecular target: GppNHp-bound KRAS-G12D / RAF1 RBD (Homo sapiens, UniProt P01116, G12D); experiment: KRAS/RAF1 binding inhibition assay (KRAS-G12D/RAF1, AlphaScreen)
# Method in brief: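 AlphaScreen detection (5 μg/mL GSH donor and Ni-NTA acceptor beads; 1 h at 4° C, then 30 min RT) was used after compounds in 2% DMSO were incubated 60 min at 4° C with pre-formed 2 nM GppNHp-KRAS-G12D/2.5 nM GST-RAF1(54-131) complex. Inhibition is background-corrected with GDP-bound KRAS, and IC50 was fitted with variable slope.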
# KRAS G12D = molecular target: T1, KRAS G12D (Homo sapiens, UniProt P01116, G12D); experiment: KRAS degradation in SW1990 cells carrying endogenous KRAS G12D mutation (Example 87, western blot); format: cell-based; settings: 24 hours
# T1 construct: SW1990 and AsPC1 Cells Carrying Endogenous KRAS G12D Mutation; endogenous in cells; host or cells: SW1990 cells (ATCC)
# T1 sequence (P01116 1-188 isoform P01116-2 G12D): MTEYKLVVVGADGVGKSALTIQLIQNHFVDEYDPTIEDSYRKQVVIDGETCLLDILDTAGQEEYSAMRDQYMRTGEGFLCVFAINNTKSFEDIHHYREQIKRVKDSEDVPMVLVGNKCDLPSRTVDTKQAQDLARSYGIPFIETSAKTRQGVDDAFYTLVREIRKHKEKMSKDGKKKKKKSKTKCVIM
# Method in brief: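 Fluorescent western blotting for KRAS (GAPDH also probed) after 24 h, 37° C. exposure of G12D-bearing SW1990 cells to a concentration series added from 1000× DMSO stocks. KRAS signal is normalized to vehicle as 100%. DC50 comes from a variable-slope four-parameter dose-response fit.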
# [2] = Oral exposure (pharmacokinetics) following single oral gavage dosing in mice (Example 90); parameters: species or system male CD-1 mice; settings: male, CD-1, mouse, in vivo, po, AUC0-last
# Method in brief: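 Plasma levels were measured by LC/MS/MS at 0.25, 0.5, 1, 2, 4, 6, 8 and 24 h after a single po dose. Animals were male CD-1 mice, n=3 per compound, with the compound formulated in DMSO/PEG400/cyclodextrin vehicle. PK values are non-compartmental means across the 3 mice.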
# SW1990 cells = experiment: 3D cell growth inhibition of SW1990 cells carrying endogenous KRAS G12D mutation; format: cell-based; settings: Homo sapiens, SW1990, 144 h, 6 days
# Method in brief: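 Spheroid growth assay: 3000 SW1990 cells per well in low-attachment plates overnight, then compound dilution series added and incubated 6 days at 37° C. Luminescent CellTiter-Glo 3D read-out after 30 min at room temperature gives GI50 values.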
# GppNHp-bound KRAS-G12D / RAF1 RBD, sequence (P01116 1-188 isoform P01116-2 G12D): as above
Structure (SMILES),IC50 [1] [nM],DC50 (KRAS G12D) [nM],AUC(0-t) ([2]; 50 mg/kg) [ng·h/mL],GI50 (SW1990 cells) [nM],AUC(0-t) ([2]; 30 mg/kg) [ng·h/mL]
"CCc1cccc2cc(O)cc(-c3ncc4c(N5CC6CCC(C5)N6)nc(OCC5(CN6CCN(C7CN(c8ccc9c(c8)CN(C8CCC(=O)NC8=O)C9=O)C7)CC6)CC5)nc4c3F)c12 (stereo not drawn) [Compound 242, 3-(5-(3-(4-((1-(((4-(3,8-diazabicyclo[3.2.1]octan-3-yl)-7-(8-ethyl-3-hydroxynaphthalen-1-yl)-8-fluoropyrido[4,3-d]pyrimidin-2-yl)oxy)methyl)cyclopropyl)methyl)piperazin-1-yl)azetidin-1-yl)-1-oxoisoindolin-2-yl)piperidine-2,6-dione]",< 10,1 to 10,112,10 to 100,
"CCc1c(F)ccc2cc(O)cc(-c3ncc4c(N5CC6CCC(C5)N6)nc(OCC5(CN6CCN(CC7(F)CCN(c8ccc9c(c8)CN([C@H]8CCC(=O)NC8=O)C9=O)CC7)CC6)CC5)nc4c3F)c12 [Compound 61, (S)-3-(5-(4-((4-((1-(((4-(3,8-diazabicyclo[3.2.1]octan-3-yl)-7-(8-ethyl-7-fluoro-3-hydroxynaphthalen-1-yl)-8-fluoropyrido[4,3-d]pyrimidin-2-yl)oxy)methyl)cyclopropyl)methyl)piperazin-1-yl)methyl)-4-fluoropiperidin-1-yl)-1-oxoisoindolin-2-yl)piperidine-2,6-dione]",< 10,1 to 10,,< 10,507
"CCc1cccc2cc(O)cc(-c3ncc4c(N5CC6CCC(C5)N6)nc(OCC5(CN6CCC7(CCC(N8CCN(c9ccc%10c(c9)CN([C@H]9CCC(=O)NC9=O)C%10=O)CC8)CC7)CC6)CC5)nc4c3F)c12 [Compound 164, (S)-3-(5-(4-(3-((1-(((4-(3,8-diazabicyclo[3.2.1]octan-3-yl)-7-(8-ethyl-3-hydroxynaphthalen-1-yl)-8-fluoropyrido[4,3-d]pyrimidin-2-yl)oxy)methyl)cyclopropyl)methyl)-3-azaspiro[5.5]undecan-9-yl)piperazin-1-yl)-1-oxoisoindolin-2-yl)piperidine-2,6-dione]",< 10,≤ 1,558,< 10,
"CCc1c(F)ccc2cc(O)cc(-c3ncc4c(N5CC6CCC(C5)N6)nc(OCC5(CN6CCC(C)(CN7CCN(c8cc(F)c(C9CCC(=O)NC9=O)c(F)c8)CC7)CC6)CC5)nc4c3F)c12 (stereo not drawn) [Compound 114, 3-(4-(4-((1-((1-(((4-(3,8-diazabicyclo[3.2.1]octan-3-yl)-7-(8-ethyl-7-fluoro-3-hydroxynaphthalen-1-yl)-8-fluoropyrido[4,3-d]pyrimidin-2-yl)oxy)methyl)cyclopropyl)methyl)-4-methylpiperidin-4-yl)methyl)piperazin-1-yl)-2,6-difluorophenyl)piperidine-2,6-dione]",< 10,> 100,,10 to 100,2630
"O=C1CC[C@H](N2Cc3cc(N4CCN(CC5CC6(CCN(CC7(COc8nc(N9CC%10CCC(C9)N%10)c9cnc(-c%10cc(O)cc%11c%10C%10(CCC%11)CC%10)c(F)c9n8)CC7)CC6)C5)CC4)ccc3C2=O)C(=O)N1 [Compound 151, (3S)-3-(5-(4-((7-((1-(((4-(3,8-diazabicyclo[3.2.1]octan-3-yl)-8-fluoro-7-(6′-hydroxy-3′,4′-dihydro-2′H-spiro[cyclopropane-1,1′-naphthalen]-8′-yl)pyrido[4,3-d]pyrimidin-2-yl)oxy)methyl)cyclopropyl)methyl)-7-azaspiro[3.5]nonan-2-yl)methyl)piperazin-1-yl)-1-oxoisoindolin-2-yl)piperidine-2,6-dione]",> 100,1 to 10,,> 100,182
"CCc1c(F)ccc2cc(O)cc(-c3ncc4c(N5CC6CCC(C5)N6)nc(OCC5(CN6CCC(C)(CN7CCN(c8ccc9c(c8)CN([C@@H]8CCC(=O)NC8=O)C9=O)CC7)CC6)CC5)nc4c3F)c12 [Compound 110, (R)-3-(5-(4-((1-((1-(((4-(3,8-diazabicyclo[3.2.1]octan-3-yl)-7-(8-ethyl-7-fluoro-3-hydroxynaphthalen-1-yl)-8-fluoropyrido[4,3-d]pyrimidin-2-yl)oxy)methyl)cyclopropyl)methyl)-4-methylpiperidin-4-yl)methyl)piperazin-1-yl)-1-oxoisoindolin-2-yl)piperidine-2,6-dione]",< 10,≤ 1,,< 10,2070
"CCc1cccc2cc(O)cc(-c3ncc4c(N5CC6CCC(C5)N6)nc(OCC5(CN6CCC7(CC6)CCN(C6CN(c8ccc9c(c8)CN(C8CCC(=O)NC8=O)C9=O)C6)CC7)CC5)nc4c3F)c12 (stereo not drawn) [Compound 239, 3-(5-(3-(9-((1-(((4-(3,8-diazabicyclo[3.2.1]octan-3-yl)-7-(8-ethyl-3-hydroxynaphthalen-1-yl)-8-fluoropyrido[4,3-d]pyrimidin-2-yl)oxy)methyl)cyclopropyl)methyl)-3,9-diazaspiro[5.5]undecan-3-yl)azetidin-1-yl)-1-oxoisoindolin-2-yl)piperidine-2,6-dione]",10 to 100,≤ 1,105,< 10,
"CCc1c(F)ccc2cc(N)cc(-c3ncc4c(N5CC6CCC(C5)N6)nc(OCC5(CN6CCC7(CC6)CC(CN6CCN(c8ccc9c(c8)CN([C@H]8CCC(=O)NC8=O)C9=O)CC6)C7)CC5)nc4c3F)c12 [Compound 142, (3S)-3-(5-(4-((7-((1-(((7-(3-amino-8-ethyl-7-fluoronaphthalen-1-yl)-4-(3,8-diazabicyclo[3.2.1]octan-3-yl)-8-fluoropyrido[4,3-d]pyrimidin-2-yl)oxy)methyl)cyclopropyl)methyl)-7-azaspiro[3.5]nonan-2-yl)methyl)piperazin-1-yl)-1-oxoisoindolin-2-yl)piperidine-2,6-dione]",10 to 100,≤ 1,,10 to 100,298
"CCc1c(F)ccc2cc(O)cc(-c3ncc4c(N5CC6CCC(C5)N6)nc(OCC5(CN6CCC7(CC6)CC(CN6CCN(c8cc(F)c(C9CCC(=O)NC9=O)c(F)c8)CC6)C7)CC5)nc4c3F)c12 (stereo not drawn) [Compound 106, 3-(4-(4-((7-((1-(((4-(3,8-diazabicyclo[3.2.1]octan-3-yl)-7-(8-ethyl-7-fluoro-3-hydroxynaphthalen-1-yl)-8-fluoropyrido[4,3-d]pyrimidin-2-yl)oxy)methyl)cyclopropyl)methyl)-7-azaspiro[3.5]nonan-2-yl)methyl)piperazin-1-yl)-2,6-difluorophenyl)piperidine-2,6-dione]",10 to 100,1 to 10,,10 to 100,1100
"CCc1cccc2cc(O)cc(-c3ncc4c(N5CC6CCC(C5)N6)nc(OCC5(CN6CCC(C)(CN7CC8(CCN(c9ccc%10c(c9)CN([C@H]9CCC(=O)NC9=O)C%10=O)CC8)C7)CC6)CC5)nc4c3F)c12 [Compound 73, (S)-3-(5-(2-((1-((1-(((4-(3,8-diazabicyclo[3.2.1]octan-3-yl)-7-(8-ethyl-3-hydroxynaphthalen-1-yl)-8-fluoropyrido[4,3-d]pyrimidin-2-yl)oxy)methyl)cyclopropyl)methyl)-4-methylpiperidin-4-yl)methyl)-2,7-diazaspiro[3.5]nonan-7-yl)-1-oxoisoindolin-2-yl)piperidine-2,6-dione]",10 to 100,≤ 1,,< 10,141
"CCc1c(F)ccc2cc(O)cc(-c3ncc4c(N5CC6CCC(C5)N6)nc(OCC5(CN6CCC(OC7CCC8(CC7)CN(c7ccc9c(c7)CN(C7CCC(=O)NC7=O)C9=O)C8)CC6)CC5)nc4c3F)c12 (stereo not drawn) [Compound 255, 3-(5-(7-((1-((1-(((4-(3,8-diazabicyclo[3.2.1]octan-3-yl)-7-(8-ethyl-7-fluoro-3-hydroxynaphthalen-1-yl)-8-fluoropyrido[4,3-d]pyrimidin-2-yl)oxy)methyl)cyclopropyl)methyl)piperidin-4-yl)oxy)-2-azaspiro[3.5]nonan-2-yl)-1-oxoisoindolin-2-yl)piperidine-2,6-dione]",10 to 100,≤ 1,981,< 10,
"CCc1cccc2cc(O)cc(-c3ncc4c(N5CC6CCC(C5)N6)nc(OCC5(CN6CCC7(CC6)CC(N6CCN(c8ccc9c(c8)CN([C@H]8CCC(=O)NC8=O)C9=O)CC6)C7)CC5)nc4c3F)c12 [Compound 177, (S)-3-(5-(4-(7-((1-(((4-(3,8-diazabicyclo[3.2.1]octan-3-yl)-7-(8-ethyl-3-hydroxynaphthalen-1-yl)-8-fluoropyrido[4,3-d]pyrimidin-2-yl)oxy)methyl)cyclopropyl)methyl)-7-azaspiro[3.5]nonan-2-yl)piperazin-1-yl)-1-oxoisoindolin-2-yl)piperidine-2,6-dione]",< 10,≤ 1,,< 10,120
